The text below walks through data of patent US20240316165A1, “POLYNUCLEOTIDES ENCODING PROPIONYL-COA CARBOXYLASE ALPHA AND BETA SUBUNITS FOR THE TREATMENT OF PROPIONIC ACIDEMIA” (ModernaTX, Inc., priority 2021, published 2024).

The series is described as follows: tissue kinetics of the components of the drug product in rodents. To be noted: tissue (tissue with the maximum mean value; not named), read-out: maximum mean tissue terminal-phase elimination half-life (t1/2) (converted). The series is classed as in vivo. As for the experimental part: An initial dosing interval of q3W is proposed on the basis of the duration of biomarker response observed in pharmacology studies in Peca−/−(A138T) mice. Specifically, at the minimum efficacious dose level of 0.5 mg/kg, decreases in plasma disease biomarkers were sustained for 3 weeks before rebounding toward pretreatment levels in propionic acidemia mice. The potential for drug product accumulation is considered low, with the planned clinical dosing regimen based on the kinetics of the components of the drug product.

Take `CCCCCCCCCOC(=O)CCCCCCCN(CCO)CCCCCCCC(=O)OC(CCCCCCCC)CCCCCCCC` [Compound II]: the half-life is 54.4 h.
